Non-standard residues stand in square brackets, D forms with d. Residues, ends and D or L forms follow the SMILES beside them. No end group written: not given here. *: point of attachment. Tic‑OH = tetrahydroisoquinoline-3-carboxylic acid (hydroxy-substituted), constrained Tyr mimetic; Cit = NC(=O)NCCC[C@H](N)C(=O)O; Acm = CC(=O)NC*
How the values were obtained:
[1] = molecular target: T1, 67 kDa laminin receptor (67-LR) (Homo sapiens, UniProt P08865); experiment: 125I-laminin displacement (competition binding) on T47-D or SK HEP-1 cells; details: relative to mEGF(33-42); 0.1 nM 125I-laminin, overnight 4° C.
T1 construct: endogenous in cells; host or cells: T47-D or SK HEP-1 cells (whole-cell suspension)
Procedure: ^125I-laminin was prepared using ^125I-labelled sodium iodide (Amersham, UK) and immobilised chloramine-T (Iodobeads; Pierce, Ill.). Prior to use, the beads were washed with 500 μl phosphate buffer (pH 6.5) to remove excess reagent from the support. These were then allowed to air dry and individual beads added to a solution of carrier free Na^125I, diluted with iodination buffer (phosphate buffer pH 7.4). The beads were allowed to equilibrate for 5 min.
Laminin (10 μg in 10 μl) was then diluted into the iodination buffer and the system incubated at 20° C. for 15 min. The solution was then removed from the reaction vessel and excess Na^125I and unincorporated ^125I2 separated from the iodinated protein by gel filtration on a GF-5 exclusion column (Pierce, Ill.). Iodinated laminin fractions were recovered at a specific activity of approximately 1.2 mCi/mg protein (864 Ci/mmol).
Near confluent cultures of T47-D or SK HEP-1 cells were removed from monolayer with 0.02% EGTA and passed through a G-25 syringe needle to produce single cell suspensions. Aliquots of each cell type (10^6 cells/ml) were dispensed into separate Ependorf tubes (1 ml each) and pelleted. The cells were then resuspended in 1 ml ice-cold RPMI (SK HEP-1) or DMEM (T47-D) containing 0.1% BSA and either laminin or synthetic peptide at the concentrations indicated. Iodinated laminin was then added to each cell suspension to give a final ^125I-laminin concentration of 0.1 nM (approximately 50,000 cpm). These mixtures were incubated overnight at 4° C.
The tubes were then microfuged at 10,000 g and the supernatant removed. After washing the pellet with 500 μl CFS, the remaining radioactivity was determined using a gamma radiation counter. Non-specific binding was determined by incubating cells with a 1000-fold molar excess of unlabelled laminin. All estimations were carried out in triplicate.
(§1) IC50 (concentration of unlabelled peptide required to produce 50% inhibition of radioligand binding) and EC50 (effective concentration for 50% inhibition of cell attachment) values were calculated using the Grafit curve-fitting programme (Erithacus Software, London, UK).

[2] = test system: trypsin-like proteases; experiment: Resistance to trypsin degradation; format: in vitro ADME
[3] = test system: cell attachment to laminin through the 67-LR (T-47D, SK HEP-1); experiment: Laminin attachment assay; format: cell-based, human; details: relative to mEGF(33-42)
Procedure: Non-tissue culture grade 96-well plates, coated with 2.5 μg murine laminin in 50 μl CFS per well, were air-dried overnight at room temperature. […] After rinsing with CFS (100 μl), the plastic was saturated with casein (0.2% in CFS). Plates were incubated at room temperature for 45 min then washed extensively with CFS (3×100 μl).
After removal of culture media, cells were detached from monolayers by the action of EGTA (0.02% in CFS) at 37° C. The cells were then centrifuged at 800 g for 2 min and the pellet resuspended in DMEM (T-47D) or RPMI (SK HEP-1).
Cells, at a population density of 10^6 cells/ml, were then aliquoted (1 ml) into microfuge tubes containing the individual peptide sequences and incubated for 1 h at 37° C. The cells (100 μl aliquots) were then added to the pre-coated multi-well plates and incubated for a further 60 min. Incubation media were removed and the wells washed with CFS (3×100 μl) to rid the plates of non-adherent cells.
Attached cell numbers were evaluated spectrophotometrically at 620 nm after fixing with 10% formaldehyde and staining with crystal violet.
as §1

[4] = test system: Endothelial cells (SK HEP-1 and BRCE); experiment: Migration assay (colloidal gold track area); format: cell-based; details: endothelial cells, 18 h
Procedure: The method used was basically as described by Albrecht-Buehler (1977). Briefly, coverslips (22×22 mm) were treated in 5% detergent (7×; ICN Biomedicals) and washed in alcohol to remove grease. After drying, they were immersed in gelatin solution (Sigma, 300 Bloom; 0.5 g in 300 ml distilled H2O) for 10 min. The coverslips were then dried by placing in a 70° C. oven for 45 min.
Colloidal gold suspension was prepared by adding 11 ml distilled H2O and 6 ml Na2CO3 (36.5 mM) to 1.8 ml AuHCl4 (14.5 mM). The mixture was heated to 95° C. at which point 1.8 ml of freshly prepared 0.1% formaldehyde solution was added; the temperature was maintained at 95° C. A suspension of colloidal gold was formed which was brown to absorbed light and blue to transmitted light.
The gold suspension, was then added to petri dishes containing individual coverslips and the plates incubated at 37° C. for 45 min. After washing with CFS (3×4 ml) to remove unattached gold particles, the coverslips were transferred to 6-well cluster dishes and UV sterilised.
Endothelial cells (SK HEP-1 and BRCE) in culture media (0.3 ml) were seeded onto the coverslips at an approximate density of 5×10^3 cells per well. The cells were allowed to plate down for 2 h at 37° C. after which the treatments were added. Assay systems were maintained for a further 18 h after which the cells were fixed using 3% gluteraldehyde in cacodylate buffer (pH 7.2).
The assays were examined using a Leica DM1RB phase contrast microscope and Q500MC image analysis system incorporating a JVC TK-1280E colour camera (Leica, Milton Keynes, UK). The track images of at least 30 cells were videocaptured and the area (representing migration response) determined for each. Statistical analysis of these areas was then carried out using Macintosh Instat software to perform both Kruskal-Wallis analysis of variance and Mann-Whitney U-tests in order to compare the treatment groups with controls.

[5] = test system: angiogenesis in the chick; details: shown previously; cited from earlier work
[6] = test system: angiogenesis in the chick; experiment: Chick angiogenesis model; format: in vivo; details: laminin-stimulated; model not stated at the place (Nelson et al 1995)
[7] = molecular target: T2, 67 kDa laminin receptor (Homo sapiens, UniProt P08865); experiment: Cell attachment to biotinylated mEGF(33-42) with anti-laminin receptor or anti-EGF receptor antibodies; format: cell-based
T2 construct: endogenous in cells
Procedure: Briefly, 96-well plates were coated with 100 μl/well streptavidin (5 μg/ml in carbonate buffer pH 9.6) and following an overnight incubation at 37° C., wells were washed with CFS (3×100 μl) and the plastic blocked with casein (0.2% in CFS). The plates were then incubated at room temperature for 45 min and washed with CFS as previously detailed. Biotinylated mEGF(33-42) in CFS was then aliquoted into the wells (0.1 ml of 100 μM) and the plates incubated for 3 h at 37° C.
After a further block with 0.2% casein, the wells were washed with CFS (3×100 μl aliquots). Plates were kept at 4° C. and used within 2 h.
Cells were prepared as above and pre-incubated for 1 h at 37° C. with serial dilutions of anti-laminin receptor polyclonal (see below) or anti-EGF (R1) receptor monoclonal antibodies. Subsequent procedures were as detailed for the laminin attachment assay.

[8] = test system: Endothelial cells (SK HEP-1 and BRCE); details: shown previously; cited from earlier work
[9] = molecular target: T3, 67-LR (Homo sapiens, UniProt P08865); experiment: Peptide screening for receptor interaction, cell adhesion and motility properties; format: cell-based
T3 construct: endogenous in cells
Excerpt: In addition, using residue exchange between the two peptides and molecular modelling to predict three-dimensional structure, we wished to further investigate the role of individual mEGF(33-42) residues in laminin antagonism. A logical series of peptides was synthesised and screened for receptor interaction, cell adhesion and motility properties (Table 1a and 1b).

receptor affinity, 125I-laminin displacement (IC50), in words [1]	Molecule	inhibition of cell attachment (adhesion) to laminin (EC50), in words [3]	migration (motility) response: laminin agonist or antagonist [4]	also measured
dramatic decrease in receptor affinity	AVIGYSGDRC [peptide VIII, alanine scan of mEGF(33-42): alanine for cysteine (P1)]	parallel decrease in their ability to block adhesion to laminin	weak laminin agonist	–
equipotent	Acetyl-C-[S-Acm]-VIGYSGDR-C-[S-Acm]NH2 (Ac-C(Acm)VIGYSGDRC(Acm)-NH2) [mEGF(33-42), capped synthetic peptide of residues 33 to 42 of murine epidermal growth factor, 67LR antagonist]	–	antagonist	EGF-stimulated angiogenic response in the early chick [5]: inhibit the EGF-stimulated angiogenic response; angiogenic effects of laminin [6]: inhibits the angiogenic effects of laminin; receptor that mediates the anti-angiogenic effects ([7]; 67-LR versus EGF receptor): mediated solely through the high affinity 67 kDa laminin receptor (67-LR) and not through the EGF receptor; binding to the 67 kDa laminin receptor ([7]; biotinylated derivative of the peptide on streptavidin plates): bound to the 67 kDa laminin receptor; basal and EGF-stimulated motility of primary and established endothelial cells [8]: blocking the basal and EGF-stimulated motility
dramatic decrease in receptor affinity	CAIGYSGDRC [peptide VII, alanine scan of mEGF(33-42): Ala for Val]	parallel decrease in their ability to block adhesion to laminin	–	–
dramatic decrease in receptor affinity	CVAGYSGDRC [peptide VI, alanine scan of mEGF(33-42): Ala for Ile]	parallel decrease in their ability to block adhesion to laminin	–	–
dramatic decrease in receptor affinity	CVIGYAGDRC [X, alanine scan of mEGF(33-42): Ala for Ser (P6)]	parallel decrease in their ability to block adhesion to laminin	–	–
equipotent	laminin	–	–	–
–	peptide II: mEGF(33-42) analogue, aspartate (P8) replaced with serine (CVIGYSGSRC)	–	–	biological function (receptor binding, adhesion, motility) [9]: complete loss of biological function
–	peptide III: mEGF(33-42) analogue with both isoleucine (P6) for serine and serine (P8) for aspartate (CVIGYIGSRC)	–	–	biological function (receptor binding, adhesion, motility) [9]: complete loss of biological function

Molecule	receptor affinity, 125I-laminin displacement (IC50), in words [1]	inhibition of cell attachment (adhesion) to laminin (EC50), in words [3]	migration (motility) response: laminin agonist or antagonist [4]	also measured
CC[C@H](C)[C@H](NC(=O)[C@@H](NC(=O)[C@H](CSCNC(C)=O)NC(C)=O)C(C)C)C(=O)NCC(=O)N[C@@H](Cc1ccc(O)cc1)C(=O)N[C@@H](CO)C(=O)NCC(=O)N[C@@H](CC(=O)O)C(=O)N[C@@H](CCCNC(N)=O)C(=O)N[C@@H](CSCNC(C)=O)C(N)=O [peptide IV, AcC(Acm)-VIGYSGD-[Cit]-C-(Acm)-NH2] (Ac-C(Acm)VIGYSGD[Cit]C(Acm)-NH2)	increased both receptor binding and inhibition of attachment to laminin substrata	–	–	resistance to trypsin / trypsin-like proteases [2]: resistant to cleavage by trypsin-like proteases
CVIGYSGDRA [peptide IX, alanine scan of mEGF(33-42): alanine for cysteine at P10]	retains both receptor binding and adhesion displacing activities	retains both receptor binding and adhesion displacing activities	has the agonism of Lam.β-1(925-933)	–
mEGF(33-42) analogue, isoleucine (P6) for serine; acetyl-Cys(ACM)-Val-Ile-Gly-Tyr-Ile-Gly-Asp-Arg-Cys(ACM)-NH2 (Ac-C(Acm)VIGYIGDRC(Acm)-NH2; SMILES CC[C@H](C)[C@H](NC(=O)[C@H](Cc1ccc(O)cc1)NC(=O)CNC(=O)[C@@H](NC(=O)[C@@H](NC(=O)[C@H](CSCNC(C)=O)NC(C)=O)C(C)C)[C@@H](C)CC)C(=O)NCC(=O)N[C@@H](CC(=O)O)C(=O)N[C@@H](CCCNC(=N)N)C(=O)N[C@@H](CSCNC(C)=O)C(N)=O) [peptide I]	reduced receptor affinity	both reduced receptor affinity and potency in displacement of cell adhesion to laminin	weak antagonist activities	–
peptide V: mEGF(33-42) analogue, tyrosine (P5) substituted with Tic-OH (CVIG[Tic‑OH]SGDRC; cysteine pairing not given here)	both receptor binding and adhesion responses were retained	both receptor binding and adhesion responses were retained	agonist	–
